The text below walks through data of patent US8268755B2, “Oxime ether derivative and fungicide for agricultural and horticultural use” (Nippon Soda Co., Ltd., priority 2007, dated 2012).

Each structure is given as a SMILES string.

The compound `COC(=O)NOc1cc(/C(C)=N/OCc2cccc(C(F)(F)F)n2)ccc1Cl` [Compound 1446, methyl N-(2-chloro-5-{1-[6-trifluoromethylpyridin-2-ylmethoxyimino]ethyl}phenoxy) carbamate] had a melting point of 100 to 101 °C.
